According to ChEMBL document CHEMBL5532691, “Anti-cancer activity and mechanism of flurbiprofen organoselenium compound RY-1-92 in non-small cell lung cancer” (RSC Med Chem, 2024):
pIC50: −log10 of the molar value. Calls of active or inactive are those of the source. No cut-off for these calls is given here.

How the values were obtained:
A549 [1] = assay: Downregulation of CDK1 protein expression in human A549 cells at 10 to 30 uM by Western blot analysis; type: functional, cell-based; settings: dose 10-30 µM
NCI-H460 [2] = assay: Upregulation of Bax protein expression in human NCI-H460 cells at 10 uM by Western blot analysis; type: functional, cell-based
NCI-H460 [3] = assay: Induction of apoptosis in human NCI-H460 cells assessed as early apoptotic cells at 30 uM measured after 48 hrs by annexin V-FITC/PI staining based flow cytometry analysis (reference value: 0.32%); type: functional
Lewis lung carcinoma [4] = assay: Antitumor activity against mouse Lewis lung carcinoma cell line xenografted in C57BL/6 mouse model assessed as decrease in bcl-2 protein expression at 10 to 20 mg/kg by Western blot analysis; type: functional, organism-based; settings: dose 10-20 mg/kg
A549 [5] = assay: Induction of apoptosis in human A549 cells assessed as early apoptotic cells at 10 uM measured after 48 hrs by annexin V-FITC/PI staining based flow cytometry analysis (reference value: 0.59%); type: functional
NCI-H460 [6] = assay: Upregulation of Bax/Bcl2 ratio in human NCI-H460 cells at 10 to 30 uM by Western blot analysis; type: functional, cell-based; settings: dose 10-30 µM
A549 [7] = assay: Induction of cell cycle arrest in human A549 cells assessed as accumulation of cells as G2 phase at 30 uM measured after 24 hrs by propidium iodide staining based flow cytometry analysis (reference value: 8.69%); type: functional
NCI-H460 [8] = assay: Downregulation of JNK phosphorylation expression in human NCI-H460 cells at 10 to 30 uM by Western blot analysis; type: functional, cell-based; settings: dose 10-30 µM
Lewis lung carcinoma [9] = assay: Antitumor activity against mouse Lewis lung carcinoma cell line xenografted in C57BL/6 mouse model assessed as reduction in tumor weight at 10 to 20 mg/kg, ip measured every three days for 15 days […]; type: functional, organism-based; settings: dose 10-20 mg/kg, time 15.0 day
A549 [10] = assay: Downregulation of TRPV1 expression level in human A549 cells at 10 to 30 uM by Western blot analysis; type: functional, cell-based; settings: dose 10-30 µM
A549 [11] = assay: Downregulation of P38 phosphorylation expression in human A549 cells at 10 to 30 uM by Western blot analysis; type: functional, cell-based; settings: dose 10-30 µM
A549 [12] = assay: Inhibition of cell migration in human A549 cells at 10 to 30 uM measured after 24 hrs by wound healing assay relative to control; type: functional; settings: dose 10-30 µM
NCI-H460 [13] = assay: Downregulation of TRPV1 expression level in human NCI-H460 cells at 10 to 30 uM by Western blot analysis; type: functional, cell-based; settings: dose 10-30 µM
A549 [14] = assay: Induction of apoptosis in human A549 cells assessed as late apoptotic cells at 10 uM measured after 48 hrs by annexin V-FITC/PI staining based flow cytometry analysis (reference value: 15.12%); type: functional
A549 [15] = assay: Upregulation of Bax protein expression in human A549 cells at 10 to 30 uM by Western blot analysis; type: functional, cell-based; settings: dose 10-30 µM
NCI-H460 [16] = assay: Induction of cell cycle arrest in human NCI-H460 cells assessed as accumulation of cells as S phase at 30 uM measured after 24 hrs by propidium iodide staining based flow cytometry analysis (reference value: 7.09%); type: functional
A549 [17] = assay: Downregulation of cyclin B1 protein expression in human A549 cells at 10 to 30 uM by Western blot analysis; type: functional, cell-based; settings: dose 10-30 µM
NCI-H460 [18] = assay: Downregulation of cyclin B1 protein expression in human NCI-H460 cells at 30 uM by Western blot analysis; type: functional, cell-based
NCI-H460 [19] = assay: Induction of apoptosis in human NCI-H460 cells assessed as early apoptotic cells at 10 uM measured after 48 hrs by annexin V-FITC/PI staining based flow cytometry analysis (reference value: 0.32%); type: functional
NCI-H460 [20] = assay: Induction of apoptosis in human NCI-H460 cells assessed as necrotic cells at 30 uM measured after 48 hrs by annexin V-FITC/PI staining based flow cytometry analysis (reference value: 2.47%); type: functional
NCI-H460 [21] = assay: Induction of apoptosis in human NCI-H460 cells assessed as viable cells at 30 uM measured after 48 hrs by annexin V-FITC/PI staining based flow cytometry analysis (reference value: 91.81%); type: functional; settings: read-out: Activity
NCI-H460 [22] = assay: Downregulation of AKT phosphorylation expression in human NCI-H460 cells at 10 to 30 uM by Western blot analysis; type: functional, cell-based; settings: dose 10-30 µM
A549 [23] = assay: Induction of apoptosis in human A549 cells assessed as necrotic cells at 10 uM measured after 48 hrs by annexin V-FITC/PI staining based flow cytometry analysis (reference value: 4.03%); type: functional
A549 [24] = assay: Induction of apoptosis in human A549 cells assessed as viable cells at 10 uM measured after 48 hrs by annexin V-FITC/PI staining based flow cytometry analysis (reference value: 80.26%); type: functional; settings: read-out: Activity
NCI-H460 [25] = assay: Antiproliferative activity against human NCI-H460 cells assessed as inhibition of cell growth incubated for 48 hrs by MTT assay; type: functional, cell-based
NCI-H460 [26] = assay: Induction of apoptosis in human NCI-H460 cells assessed as viable cells at 10 uM measured after 48 hrs by annexin V-FITC/PI staining based flow cytometry analysis (reference value: 91.81%); type: functional; settings: read-out: Activity
Lewis lung carcinoma [27] = assay: Antitumor activity against mouse Lewis lung carcinoma cell line xenografted in C57BL/6 mouse model assessed as reduction in tumor volume at 10 to 20 mg/kg, ip measured every three days for 15 days by vernier caliper analysis; type: functional, organism-based; settings: dose 10-20 mg/kg, time 15.0 day
A549 [28] = assay: Induction of cell cycle arrest in human A549 cells assessed as accumulation of cells as S phase at 10 uM measured after 24 hrs by propidium iodide staining based flow cytometry analysis (reference value: 19.57%); type: functional
A549 [29] = assay: Upregulation of Bax/Bcl2 ratio in human A549 cells at 10 to 30 uM by Western blot analysis; type: functional, cell-based; settings: dose 10-30 µM
NCI-H460 [30] = assay: Induction of apoptosis in human NCI-H460 cells assessed as late apoptotic cells at 10 uM measured after 48 hrs by annexin V-FITC/PI staining based flow cytometry analysis (reference value: 5.41%); type: functional
A549 [31] = assay: Induction of cell cycle arrest in human A549 cells assessed as accumulation of cells as S phase at 30 uM measured after 24 hrs by propidium iodide staining based flow cytometry analysis (reference value: 19.57%); type: functional

pIC50 (NCI-H460 [25]; NCI-H460, 48 h): 4.11
Compound: CC(C(=O)NCCC[Se]C(F)(F)F)c1ccc(-c2ccccc2)c(F)c1 (configuration not stated)
Activity (A549 [1]): Active
Activity (NCI-H460 [2]): Active
Activity (NCI-H460 [3]): 1.97%
Activity (Lewis lung carcinoma [4]): Active
Activity (A549 [5]): 0.53%
Activity (NCI-H460 [6]): Active
Activity (A549 [7]): 39.92%
Activity (NCI-H460 [8]): Active
Activity (Lewis lung carcinoma [9]): Active
Activity (A549 [10]): Active
Activity (A549 [11]): Active
inhibition (INH) (A549 [12]): 62.9%
Activity (NCI-H460 [13]): Active
Activity (A549 [14]): 20.25%
Activity (A549 [15]): Active
Activity (NCI-H460 [16]): 11.14%
Activity (A549 [17]): Active
Activity (NCI-H460 [18]): Active
Activity (NCI-H460 [19]): 0.36%
Activity (NCI-H460 [20]): 6.76%
viability at 30 µM (NCI-H460 [21]): 74%
Activity (NCI-H460 [22]): Active
Activity (A549 [23]): 3.99%
viability at 10 µM (A549 [24]): 74.6%
Activity (NCI-H460 [25]; dose 3-300 µM): Dose-Dependent Effect
viability at 10 µM (NCI-H460 [26]): 91%
Activity (Lewis lung carcinoma [27]): Active
Activity (A549 [28]): 13.83%
Activity (A549 [29]): Active
Activity (NCI-H460 [30]): 6.97%
Activity (A549 [31]): 52.63%
